For ten compounds, LC50 (50% lethal concentration), CC50 and IA results are on record in ChEMBL document CHEMBL1135678, “Pyrimidoquinazoline-based antitumor agents. Design of topoisomerase II to DNA cross-linkers with activity against protein kinases” (2002).

Activity calls are given as the source filed them. The calls are words filed in the database; no cut-off is given here.

In one assay the test system is HT-29. In words: Compound tested for cytotoxicity against human cancer cell line (HT-29 colon). Format: functional.
Conditions: not given
Regarding `Cn1c(CBr)nc2cc3c(=O)n(C)c(CBr)nc3cc2c1=O`, the LC50 (50% lethal concentration) turned out to be 280 nM.

Regarding `CC(=O)Oc1nc2cc3c(=O)n(C)c(OC(C)=O)nc3cc2c(=O)n1C`, the LC50 (50% lethal concentration) is 19000 nM. On the same count and under the same terms, the same measure for `CCCn1c(CCl)nc2cc3c(=O)n(CCC)c(CCl)nc3cc2c1=O`: 800 nM; for `COc1c2nc(CCl)n(C)c(=O)c2c(OC)c2nc(CCl)n(C)c(=O)c12`: 110 nM. On the same count and under the same terms, under `COc1c2nc(CCl)n(C)c(=O)c2c(OC)c2c(=O)n(C)c(CCl)nc12` stands 6330 nM.

A further assay relates to OVCAR-3. In words: Compound tested for cytotoxicity against human cancer cell line (Ovcar 3 ovarian). The format is functional. Conditions: read-out: LC50 (the source's name).
As to `Cn1c(CCl)nc2cc3c(=O)n(C)c(CCl)nc3cc2c1=O`, the CC50 came out at 2000 nM. The same measure, in the same setting: the same measure for `Oc1nc(CBr)nc2cc3c(O)nc(CBr)nc3cc12`: 850 nM.

A further assay concerns HT-29. As to the kind of experiment: Compound tested for cytotoxicity against human cancer cell line (HT-29 colon); Inactive. Format: functional, cell-based.
Conditions: not given
`COCCn1c(CCl)nc2c(OC)c3c(=O)n(CCOC)c(CCl)nc3c(OC)c2c1=O`: the IA entry is “inactive”.

In the case of `COCCCn1c(CCl)nc2c(OC)c3c(=O)n(CCCOC)c(CCl)nc3c(OC)c2c1=O`, the IA entry is “inactive”.

The subject of another assay is WiDr. As to the kind of experiment: Compound tested for cytotoxicity against human cancer cell line (WiDr Colon). Format: functional. Conditions: read-out: LC50 (the source's name).
Consider `Oc1nc(CCl)nc2cc3c(O)nc(CCl)nc3cc12`, for which the CC50 was 5000 nM.

As to `Cn1c(CCl)nc2cc3c(=O)n(C)c(CCl)nc3cc2c1=O`, the CC50 was determined as 350 nM. The same measure, in the same setting: the same measure for `Oc1nc(CBr)nc2cc3c(O)nc(CBr)nc3cc12`: 900 nM.
